According to patent US12157730B2, “Heteroaryl derivative, method for producing same, and pharmaceutical composition comprising same as effective component” (VORONOI INC., priority 2019, dated 2024):

Target: T1, Ba/F3 cell EGFR Exon20 ins NPH (Homo sapiens, UniProt P00533, INS773NPH)
T1 construct: expressed in transfected cells; host or cells: Ba/F3
Assay: Ba/F3 cell proliferation suppression, EGFR Exon20 ins NPH
Format: cell-based
Details: GI50 class; Ba/F3 cell line with NPH inserted at Exon20 of EGFR; 72 hours
In short: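 Seed 3000–5000 cells/well; after 24 h add compound (12 conc., 0.3 nM–50 um final); incubate 72 h; add CellTiter-Glo, 10 min room temperature; read luminescence; GI50 from % growth vs control, triplicate.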

| Compound | Ba/F3 (NPH) Activity |
| --- | --- |
| COc1cc(N2CCOCC2)c(NC(=O)/C=C/CN(C)C)cc1Nc1cc(N2OCC[C@@H]2c2cc(F)cc(F)c2)ncn1 [compound 397, N-(5-((6-((R)-3-(3,5-difluorophenyl)isoxazolidine-2-yl)pyrimidine-4-yl)amino)-4-methoxy-2-morpholinophenyl)-(E)-4-(dimethylamino)but-2-enamide] | A (GI50 < 50 nM) |
| C=CC(=O)Nc1cc(Nc2cc(N3OCC[C@@H]3Cc3cccnc3)ncn2)c(OC)cc1N1CCC(N2CCN(C3CC3)[C@H](C)C2)CC1 [compound 1056, N-(2-(4-((R)-4-cyclopropyl-3-methylpiperazine-1-yl)piperidine-1-yl)-4-methoxy-5-((6-((S)-3-(pyridine-3-ylmethyl)isoxazolidine-2-yl)pyrimidine-4-yl)amino)phenyl)acrylamide] | B (50 nM ≤ GI50 < 500 nM) |
| C=CC(=O)Nc1cc(Nc2cc(N3OCC[C@@H]3c3c(F)ccc(F)c3F)ncn2)c(OC)cc1N1CCC(N2CCN(C3CC3)CC2)CC1 [Example 169, N-(2-(4-(4-cyclopropylpiperazine-1-yl)piperidine-1-yl)-4-methoxy-5-((6-((R)-3-(2,3,6-trifluorophenyl)isoxazolidine-yl)pyrimidine-4-yl)amino)phenyl)acrylamide] | A (GI50 < 50 nM) |
| C#Cc1cccc([C@H]2CCON2c2cc(Nc3cc(NC(=O)C=C)c(N4CCC(N5CCN(C6CCC6)CC5)CC4)cc3OC)ncn2)c1 [Example 191, N-(2-(4-(4-cyclobutylpiperazine-1-yl)piperidine-1-yl)-5-((6-((R)-3-(3-ethynylphenyl)isoxazolidine-2-yl)pyrimidine-4-yl)amino)-4-methoxyphenyl) acrylamide] | A (GI50 < 50 nM) |
| C=CC(=O)Nc1cc(Nc2cc(N3OCC[C@@H]3c3cccc(C#N)c3)ncn2)c(OC)cc1N1CCC(N2CCN(C3COC3)CC2)CC1 [Example 196, N-(5-((6-((R)-3-(3-cyanophenyl)isoxazolidine-2-yl)pyrimidine-4-yl)amino)-4-methoxy-2-(4-(4-(oxetane-3-yl)piperazine-1-yl)piperidine-1-yl)phenyl)acrylamide] | A (GI50 < 50 nM) |
| C=CC(=O)Nc1cc(Nc2cc(N3OCC[C@@H]3Cc3cccc(N(C)C)c3)ncn2)c(OC)cc1N1CCC(N2CCN(C3CC3)CC2)CC1 [compound 1044, N-(2-(4-(4-cyclopropylpiperazine-1-yl)piperidine-1-yl)-5-((6-((S)-3-(3-(dimethylamino)benzyl)isoxazolidine-2-yl)pyrimidine-4-yl)amino)-4-methoxyphenyl) acrylamide] | B (50 nM ≤ GI50 < 500 nM) |
| C=CC(=O)Nc1cc(Nc2cc(N3OCC[C@@H]3c3cccc(Cl)c3F)ncn2)c(OC)cc1N1CCC(N2C[C@H]3C[C@@H]2CO3)CC1 [Example 258, N-(2-(4-((1R,4R)-2-oxa-5-azabicyclo [2.2.1]heptane-5-yl)piperidine-1-yl)-5-((6-((R)-3-(3-chloro-2-fluorophenyl)isoxazolidine-2-yl)pyrimidine-4-yl)amino)-4-methoxyphenyl) acrylamide] | A (GI50 < 50 nM) |
| C=CC(=O)Nc1cc(Nc2cc(N3OCC[C@@H]3c3ccc4ccccc4c3)ncn2)c(OC)cc1N1CCC(N2CCN(C)CC2)CC1 [compound 554, N-(4-methoxy-2-(4-(4-methylpiperazine-1-yl)piperidine-1-yl)-5-((6-((R)-3-(naphthalene-2-yl)isoxazolidine-2-yl)pyrimidine-4-yl)amino)phenyl)acrylamide] | B (50 nM ≤ GI50 < 500 nM) |
| C=CC(=O)Nc1cc(Nc2cc(N3OCC[C@H]3c3c(F)ccc(F)c3F)ncn2)c(OC)cc1N1CCC(N2CCN(C3CC3)CC2)CC1 [compound 937, N-(2-(4-(4-cyclopropylpiperazine-1-yl)piperidine-1-yl)-4-methoxy-5-((6-((S)-3-(2,3,6-trifluorophenyl)isoxazolidine-2-yl)pyrimidine-4-yl)amino)phenyl)acrylamide] | B (50 nM ≤ GI50 < 500 nM) |
| C=CC(=O)Nc1cc(Nc2cc(N3OCC[C@@H]3Cc3ccccc3)ncn2)c(OC)cc1N1C[C@@H]2C[C@H]1CO2 [compound 962, N-(5-((6-((S)-3-benzylisoxazolidine-2-yl)pyrimidine-4-yl)amino)-2-((1S,4S)-2-oxa-5-azabicyclo [2.2.1]heptane-5-yl)-4-methoxyphenyl) acrylamide] | A (GI50 < 50 nM) |
| C=CC(=O)Nc1cc(Nc2cc(N3OCC[C@@H]3c3cccc4ccccc34)ncn2)c(OC)cc1N1CCC(N2CCN(C)CC2)CC1 [compound 482, N-(4-methoxy-2-(4-(4-methylpiperazine-1-yl)piperidine-1-yl)-5-((6-((R)-3-(naphthalene-1-yl)isoxazolidine-2-yl)pyrimidine-4-yl)amino)phenyl)acrylamide] | A (GI50 < 50 nM) |

Second part, the compound after the results:

| Ba/F3 (NPH) Activity | Compound |
| --- | --- |
| A (GI50 < 50 nM) | C=CC(=O)Nc1cc(Nc2cc(N3OCC[C@@H]3c3ccc(F)c(Cl)c3F)ncn2)c(OC)cc1N1CCC(N2CCN(C(C)=O)CC2)CC1 [compound 636, N-(2-(4-(4-acetylpiperazine-1-yl)piperidine-1-yl)-5-((6-((R)-3-(3-chloro-2,4-difluorophenyl)isoxazolidine-2-yl)pyrimidine-4-yl)amino)-4-methoxyphenyl) acrylamide] |
| A (GI50 < 50 nM) | C=CC(=O)Nc1cc(Nc2cc(N3OCC[C@@H]3c3cc(F)ccc3F)ncn2)c(OC)cc1N1CCC(N2C[C@H]3C[C@@H]2CO3)CC1 [Example 259, N-(2-(4-((1R,4R)-2-oxa-5-azabicyclo[2.2.1]heptane-5-yl)piperidine-1-yl)-5-((6-((R)-3-(2,5-difluorophenyl)isoxazolidine-2-yl)pyrimidine-4-yl)amino)-4-methoxyphenyl) acrylamide] |
| A (GI50 < 50 nM) | C=CC(=O)Nc1cc(Nc2cc(N3OCC[C@@H]3c3cc(F)ccc3F)ncn2)c(OC)cc1N1CCN(CC)CC1 [compound 849, N-(5-((6-((R)-3-(2,5-difluorophenyl)isoxazolidine-2-yl)pyrimidine-4-yl)amino)-2-(4-ethylpiperazine-1-yl)-4-methoxyphenyl) acrylamide] |
| A (GI50 < 50 nM) | C=CC(=O)Nc1cc(Nc2cc(N3OCC[C@@H]3c3ccc(F)c(Cl)c3F)ncn2)c(OC)cc1N1CC[C@@H](N(C)C)C1 [compound 599, N-(5-((6-((R)-3-(3-chloro-2,4-difluorophenyl)isoxazolidine-2-yl)pyrimidine-4-yl)amino)-2-((R)-3-(dimethylamino)pyrolidine-1-yl)-4-methoxyphenyl) acrylamide] |
| B (50 nM ≤ GI50 < 500 nM) | C=CC(=O)Nc1cc(Nc2cc(N3OCC[C@@H]3c3ccc(C)nc3)ncn2)c(OC)cc1N1CCC(N(C)C)CC1 [Example 50, N-(2-(4-dimethylaminopiperidine-1-yl)-4-methoxy-5-((6-((R)-3-(6-methylpyridine-3-yl)isoxazolidine-2-yl)pyrimidine-4-yl)amino)phenyl) acrylamide] |
| A (GI50 < 50 nM) | C=CC(=O)Nc1cc(Nc2cc(N3OCC[C@@H]3c3ccc(Cl)c(F)c3)ncn2)c(OC)cc1N1CCC(N2CCC(N(C)C)CC2)CC1 [compound 803, N-(5-((6-((R)-3-(4-chloro-3-fluorophenyl)isoxazolidine-2-yl)pyrimidine-4-yl)amino)-2-(4-(dimethylamino)-[1,4'-bipiperidine]-1'-yl)-4-methoxyphenyl) acrylamide] |
| A (GI50 < 50 nM) | C=CC(=O)Nc1cc(Nc2cc(N3OCC[C@@H]3c3cc(F)ccc3F)ncn2)c(OC)cc1N1CC[C@@H](N(C)C)C1 [compound 848, N-(5-((6-(2,5-((R)-3-difluorophenyl)isoxazolidine-2-yl)pyrimidine-4-yl)amino)-2-((R)-3-(dimethylamino)pyrolidine-1-yl)-4-methoxyphenyl) acrylamide] |
| A (GI50 < 50 nM) | C=CC(=O)Nc1cc(Nc2cc(N3OCC[C@@H]3c3ccc(Cl)cc3F)ncn2)c(OC)cc1N1CCC(N2C[C@H]3C[C@@H]2CO3)CC1 [compound 548, N-(2-(4-((1R,4R)-2-oxa-5-azabicyclo[2.2.1]heptane-5-yl)piperidine-1-yl)-5-((6-((R)-3-(4-chloro-2-fluorophenyl)isoxazolidine-2-yl)pyrimidine-4-yl)amino)-4-methoxyphenyl) acrylamide] |
| A (GI50 < 50 nM) | C=CC(=O)Nc1cc(Nc2cc(N3OCC[C@@H]3c3cc(F)ccc3F)ncn2)c(OC)cc1N1CCC(N2C[C@@H](C)N(C3CC3)C[C@H]2C)CC1 [Example 172, N-(2-(4-((2R,5R)-4-cyclopropyl-2,5-dimethylpiperazine-1-yl)piperidine-1-yl)-5-((6-((R)-3-(2,5-difluorophenyl)isoxazolidine-2-yl)pyrimidine-4-yl)amino)-4-methoxypheny) acrylamide] |
| C (500 nM ≤ GI50 < 5000 nM) | C=CC(=O)Nc1cc(Nc2cc(N3OCC[C@@H]3c3ccc(F)c(F)c3F)ncn2)c(OC)cc1N1CC[C@@H](N(C)C)C1 [compound 622, N-(2-((R)-3-(dimethylamino)pyrolidine-1-yl)-4-methoxy-5-((6-((R)-3-(2,3,4-trifluorophenyl)isoxazolidine-2-yl)pyrimidine-4-yl)amino)phenyl)acrylamide] |
| A (GI50 < 50 nM) | C=CC(=O)Nc1cc(Nc2cc(N3OCC[C@@H]3c3c(F)ccc(F)c3Cl)ncn2)c(OC)cc1N1CCC(N2C[C@@H]3C[C@H]2CO3)CC1 [compound 693, N-(2-(4-((1S,4S)-2-oxa-5-azabicyclo[2.2.1]heptane-5-yl)piperidine-1-yl)-5-((6-((R)-3-(2-chloro-3,6-difluorophenyl)isoxazolidine-2-yl)pyrimidine-4-yl)amino)-4-methoxyphenyl) acrylamide] |
| A (GI50 < 50 nM) | C=CC(=O)Nc1cc(Nc2cc(N3OCC[C@@H]3c3ccc(Cl)cc3F)ncn2)c(OC)cc1N1CCC(N(C)C)CC1 [compound 403, N-(5-((6-((R)-3-(4-chloro-2-fluorophenyl)isoxazolidine-2-yl)pyrimidine-4-yl)amino)-2-(4-(dimethylamino)piperidine-1-yl)-4-methoxyphenyl) acrylamide] |
